Columns and labels:
[1] = biological target: Retinol Binding Protein (RBP) (Homo sapiens, UniProt P02753); assay: Fluorescence quenching study of MPR binding to retinol binding protein
Protocol: Apo-RBP at 0.5 μM was incubated with 0, 0.25, 0.5, 1 and 2 μM of MPR in PBS at room temperature for 1 hour, respectively. As controls, the same concentration of Apo-RBP was also incubated with 1 μM of HPR or 1 μM of atROL. All mixtures contained 0.2% Ethanol (v/v). The emission spectra were measured between 290 nm to 550 nm with excitation wavelength at 280 nm and 3 nm bandpass.

[2] = system: ABCA4−/− mice; assay: Drug holiday after 28 days of HPR: A2E and precursors in eyecup extracts (HPLC); type: in vivo; conditions: 28-day drug holiday
Protocol: HPR (10 mg/kg in DMSO) was administered to ABCA4−/− mice daily for a period of 28 days. Control ABCA4−/− mice received only DMSO for the same period. […] Importantly, the observed reductions in lipofuscin autofluorescence persist long after cessation of HPR therapy. HPR (10 mg/kg), or DMSO, administration was discontinued following 28 days of treatment and re-evaluated A2E and precursor levels after 2 weeks and after 4 weeks.
We examined eyecup extracts by HPLC and employed detection by absorbance and fluorimetry. Identity of the indicated peaks was confirmed by on-line spectral analysis and by co-elution with authentic standards. […] Further, the A2E and precursor (A2PE-H2 and A2PE) levels after a […] or 28-day drug holiday remained at or near the levels immediately following 28 days of treatment (i.e., ca. 50% reduction relative to control), although after the 28-day drug holiday, the amount of A2E and precursor (A2PE-H2 and A2PE) had increased by a few percentage points relative to the 12-day drug holiday levels. […] It is clear that peak fluorescence tracks with the abundance of A2E, A2PE and A2PE-H2.

[3] = biological target: TTR binding to RBP (Homo sapiens, UniProt P02753); assay: Size exclusion study of transthyretin (TTR) binding to RBP; conditions: 10 μM Apo-RBP; for binding of ligand-RBP to TTR: gel filtration, 360/330 nm absorbance
Protocol: Apo-RBP at 10 μM was incubated with […] in PBS at room temperature for 1 hour. 10 μM of TTR was then added to the solution, and the mixture was incubated for another hour at room temperature. […] of the sample mixtures with and without TTR addition were analyzed by BioRad Bio-Sil SEC 125 Gel Filtration Column (300×7.8 mm). In control experiments, atROL-RBP and atROL-RBP-TTR mixture were analyzed in the same manner.

[4] = biological target: retinol-RBP-TTR complex (Homo sapiens, UniProt P02753); assay: High-throughput FRET assay for RBP/TTR interaction; type: binding; conditions: conditions as for HPR, FIG. 6
Excerpt: Reduction of serum retinol and RBP are correlated with concomitant reductions in toxic lipofuscin fluorophores. Because compounds that affect RBP-TTR interaction will directly affect fluorophore levels in the eye, a high-throughput screen for small molecules which prevent interaction of RBP with TTR was developed. This screen employs probe-labeled forms of RBP and TTR which participate in a unique fluorescence resonance energy transfer (FRET) event when complexed. Compounds which interfere with RBP-TTR interaction prevent FRET. Sample spectra taken during the course of this type of assay are shown, in FIG. 4. […] The sample is incubated at 37° C. for 30 min and then illuminated with 330 nm light. The emission spectra are shown in the range of 400-600 nm. HPR binds to RBP and prevents interaction with TTR, and here this property of HPR is utilized here to validate the ability of this screen to detect inhibition of RBP-TTR interaction. […] Additionally, the design of this assay permits discrimination between compounds which interact with RBP versus those which interact with TTR. Thus, by using two distinct excitation energies (280 nm and 330 nm, for protein and retinol, respectively) and implementing simultaneous monitoring of the retinol and TTR-probe fluorescence, the “target” of a presumptive small molecule can be easily determined.
Accordingly, HPR was employed at varied concentrations (from 0-4 μM), using the conditions specified in Example 7, to evaluate the high throughput assay.
The mechanism of action underlying this effect can be explained by the disruption of RBP-TTR interactions. In order to explore this possibility and to further validate the RBP-TTR screen, the effects of all-trans retinoic and 13-cis retinoic acid, using the conditions the conditions specified for analysis of HPR, were examined.

[5] = several investigators; Berni et al. 1993; cited from earlier work

With `COc1ccc(NC(=O)\C=C(C)/C=C/C=C(C)\C=C\C2=C(C)CCCC2(C)C)cc1` (stereo in doubt) [MPR, N-(4-methoxyphenyl)retinamide] as the compound, how does the “quenching of RBP fluorescence” value ([1]; 0.5 μM Apo-RBP, 0-2 μM MPR, room temperature 1 hour, excitation 280 nm) read?
The value was “concentration-dependent quenching”.

And the “degree of quenching compared with other ligands” value ([1]; controls at 1 μM)?
The value was “smaller than those by atROL and HPR”.

What about the “concentration at which quenching saturated” value ([1]; for 0.5 μM of RBP) of the same compound?
Its value is 1 µM.

What about the “detection of HPR or HPR metabolites in the eyes” value [2] of the same compound?
The value was “unable to detect”.

What about the “binding of RBP to ligand (360 nm absorbance in RBP elution peak)” value [3] of the same compound?
Its value is “RBP binds to MPR”.

What about the “effect on binding of TTR to RBP” value ([3]; 10 μM TTR) of the same compound?
Its value is “inhibits the binding of TTR to RBP”.

What about the “binding of ligand-RBP to TTR” value ([3]; 10 μM TTR) of the same compound?
The value was “did not bind to TTR”.

Which “inhibition of RBP-TTR interaction” value [4] does the source give for `CC1=C(/C=C/C(C)=C/C=C/C(C)=C\C(=O)O)C(C)(C)CCC1` [13-cis retinoic acid, 13-cis-retinoic acid] here?
Its value is “inhibitors of RBP-TTR interaction”.

Which results are given for `CC1=C(/C=C/C(C)=C/C=C/C(C)=C/C(=O)O)C(C)(C)CCC1` [all-trans retinoic, all-trans-retinoic acid]?
reduction in circulating RBP and retinol [5]: observed in vivo; inhibition of RBP-TTR interaction [4]: inhibitors of RBP-TTR interaction

What does the source list for `CC1=C(/C=C/C(C)=C/C=C/C(C)=C/CO)C(C)(C)CCC1` [atROL, all-trans retinol]?
binding to RBP ([1]; 1 μM ligand, 0.5 μM Apo-RBP): bind to RBP; binding of ligand-RBP to TTR ([3]; 10 μM TTR): binds to TTR
